Results on 5 compounds are retold here after patent US20220281848A1, “PYRAZOLE-SUBSTITUTED PYRROLIDINONES AS HERBICIDES” (FMC Corporation, priority 2019, published 2022).

What all share (type): in vivo
The subject of experiment [1] is ivy-leaved morning glory (Ipomoea hederacea, IPOHE). Briefly: Test A pre-emergence, ivy-leaved morning glory. The settings on record: after 13 d. In a few lines:
(§1)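 Seeds sown in pots of standard soil and sprayed one day later, pre-emergence, at 15.625, 62.5 or 250 g/ha in acetone/water (50:50) with 0.5% Tween 20. Grown in glasshouse at 24/16 °C, 14 h light, 65% humidity. Damage scored after 13 d (0 none, 100 total).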

The test system is the same in experiment [2]. Briefly: Test A post-emergence, ivy-leaved morning glory. As to conditions: after 13 d. An outline of the steps: (§2)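 Plants sown in standard soil were grown 8 d in a glasshouse (24/16 °C day/night, 14 h light, 65% humidity), then sprayed with compound in acetone/water (50:50) with 0.5% Tween 20 at 15.625, 62.5 or 250 g/ha. Damage was scored after 13 d (0 = none, 100 = total).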

The subject of experiment [3] is barnyardgrass (Echinochloa crus-galli, ECHCG). The experiment in a line: Test A pre-emergence, barnyardgrass. The settings on record: after 13 d. In a few lines: as §1
Experiment [4] concerns maize. Briefly: Test D post-emergence, maize seed treated with a herbicide safener. The protocol:
(§3) A formulation containing 50 g/L of the test chemical was prepared by dissolving the active ingredient in a mixture of organic solvents and emulsifier, details of which are provided in the table. This formulation was then mixed with a small, variable amount of acetone to aid dissolution, before addition of a 0.2% v/v aqueous solution of an adjuvant, as the aqueous diluent, to form an aqueous spray solution which contains a predetermined concentration of the active ingredient.
(§4) This aqueous spray solution was then sprayed onto plants including maize and wheat that had been seed treated with a herbicide safener, after one day's cultivation (for pre-emergence) or after about 12 days' cultivation (for post-emergence). The plants were grown from seeds sown in standard soil, placed in a glasshouse under controlled conditions (at 24/18° C. or 20/16° C., day/night; 16 h light; 65% humidity). After spray application the plants were then grown in a glasshouse under the same conditions and watered twice daily. After 15 d for post-emergence and 20 DAA for pre-emergence the test was evaluated (100=total damage to plant; 0=no damage to plant).

In experiment [5] the test system is wheat. Briefly: Test D post-emergence, wheat seed treated with a herbicide safener. As to conditions: "Cereals" Postemergent. As to the method:
as §3, §4

For experiment [6], the system named is barnyardgrass (Echinochloa crus-galli, ECHCG). The experiment in a line: Test A post-emergence, barnyardgrass. The settings on record: after 13 d. In a few lines:
as §2

Experiment [7] concerns corn (Zea mays, ZEAMX). The experiment in a line: Test A pre-emergence, corn. The settings on record: after 13 d. An outline of the steps:
as §1

Setting [8] is: Rates 130, evaluated after 15 d.
The mark [9] stands for this setting: Rates 250, evaluated after 15 d.
The mark [10] stands for this setting: Rates 500, evaluated after 15 d.

Regarding `CN1CC(c2cc(C(F)(F)F)n(C)n2)C(C(=O)Nc2ccc(F)c(F)c2F)C1=O` (racemic) [Compound 17], the “damage to plant (100=total damage; 0=no damage) IPOHE” value in experiment [1] (Pre-Emergence at 15.625 g/ha) amounted to 0; in experiment [1] (Pre-Emergence at 62.5 g/ha), 0; in experiment [1] (Pre-Emergence at 250 g/ha), 20; in experiment [2] (Post-Emergence at 15.625 g/ha) it was 0; in experiment [2] (Post-Emergence at 62.5 g/ha), 0; in experiment [2] (Post-Emergence at 250 g/ha), 0. For the same compound, the “damage to plant (100=total damage; 0=no damage) ECHCG” value is listed as 90 in experiment [3] (Pre-Emergence at 15.625 g/ha); 100 in experiment [3] (Pre-Emergence at 62.5 g/ha); 100 in experiment [3] (Pre-Emergence at 250 g/ha); 60 in experiment [6] (Post-Emergence at 15.625 g/ha); 70 in experiment [6] (Post-Emergence at 62.5 g/ha); 80 in experiment [6] (Post-Emergence at 250 g/ha). Further, the “damage to plant (100=total damage to plant; 0=no damage to plant), ZEAMX” value in experiment [4] (rate 130, evaluated after 15 d) is given as 0; in experiment [4] (rate 250, evaluated after 15 d) it was 0; in experiment [4] (rate 500, evaluated after 15 d), 0. For the same compound, the “TRZAW damage rating (100=total damage to plant; 0=no damage to plant)” value in experiment [5] (setting [8]) is 0; in experiment [5] (setting [9]) it was 40; in experiment [5] (setting [10]) it was 70. For the same compound, the “damage to plant (100=total damage; 0=no damage) ZEAMX” value in experiment [7] (Pre-Emergence at 15.625 g/ha) is listed as 60; in experiment [7] (Pre-Emergence at 62.5 g/ha), 70; in experiment [7] (Pre-Emergence at 250 g/ha), 90.
Take `CCn1nc([C@H]2CN(C)C(=O)[C@@H]2C(=O)Nc2cccc(F)c2F)c2cc(F)ccc21` [Compound 8]: the “damage to plant (100=total damage; 0=no damage) IPOHE” value in experiment [1] (Pre-Emergence at 15.625 g/ha) is on record as 20; in experiment [1] (Pre-Emergence at 62.5 g/ha), 20; in experiment [1] (Pre-Emergence at 250 g/ha) it was 20; in experiment [2] (Post-Emergence at 15.625 g/ha) it was 20; in experiment [2] (Post-Emergence at 62.5 g/ha), 0; in experiment [2] (Post-Emergence at 250 g/ha), 30. For the same compound, the “damage to plant (100=total damage; 0=no damage) ECHCG” value stood at 80 in experiment [3] (Pre-Emergence at 15.625 g/ha); 90 in experiment [3] (Pre-Emergence at 62.5 g/ha); 90 in experiment [3] (Pre-Emergence at 250 g/ha); 60 in experiment [6] (Post-Emergence at 15.625 g/ha); 70 in experiment [6] (Post-Emergence at 62.5 g/ha); 80 in experiment [6] (Post-Emergence at 250 g/ha). Also, the “damage to plant (100=total damage to plant; 0=no damage to plant), ZEAMX” value in experiment [4] (rate 130, evaluated after 15 d) was determined as 0; in experiment [4] (rate 250, evaluated after 15 d), 0; in experiment [4] (rate 500, evaluated after 15 d), 0. Besides, the “damage to plant (100=total damage; 0=no damage) ZEAMX” value in experiment [7] (Pre-Emergence at 15.625 g/ha) amounted to 20; in experiment [7] (Pre-Emergence at 62.5 g/ha), 40; in experiment [7] (Pre-Emergence at 250 g/ha) it was 70.
With `CN1CC(c2cc(C(F)(F)F)n(C)n2)C(C(=O)Nc2ccc(F)cc2F)C1=O` (racemic) [Compound 6], the “damage to plant (100=total damage; 0=no damage) IPOHE” value in experiment [1] (Pre-Emergence at 15.625 g/ha) came to 0; in experiment [1] (Pre-Emergence at 62.5 g/ha), 0; in experiment [1] (Pre-Emergence at 250 g/ha), 10; in experiment [2] (Post-Emergence at 15.625 g/ha) it was 40; in experiment [2] (Post-Emergence at 62.5 g/ha), 20; in experiment [2] (Post-Emergence at 250 g/ha) it was 10. For the same compound, the “damage to plant (100=total damage; 0=no damage) ECHCG” value is recorded as 80 in experiment [3] (Pre-Emergence at 15.625 g/ha); 90 in experiment [3] (Pre-Emergence at 62.5 g/ha); 90 in experiment [3] (Pre-Emergence at 250 g/ha); 70 in experiment [6] (Post-Emergence at 15.625 g/ha); 70 in experiment [6] (Post-Emergence at 62.5 g/ha); 70 in experiment [6] (Post-Emergence at 250 g/ha). For the same compound, the “damage to plant (100=total damage to plant; 0=no damage to plant), ZEAMX” value in experiment [4] (rate 130, evaluated after 15 d) turned out to be 0; in experiment [4] (rate 250, evaluated after 15 d) it was 10; in experiment [4] (rate 500, evaluated after 15 d), 20. The “TRZAW damage rating (100=total damage to plant; 0=no damage to plant)” value in experiment [5] (setting [8]) is on record as 0; in experiment [5] (setting [9]) it was 10; in experiment [5] (setting [10]), 20. Moreover, the “damage to plant (100=total damage; 0=no damage) ZEAMX” value in experiment [7] (Pre-Emergence at 15.625 g/ha) came to 10; in experiment [7] (Pre-Emergence at 62.5 g/ha), 20; in experiment [7] (Pre-Emergence at 250 g/ha), 60.
As for `COc1c(F)cccc1NC(=O)C1C(=O)N(C)CC1c1cc(C(F)(F)F)n(C)n1` (racemic) [Compound 18], the “damage to plant (100=total damage; 0=no damage) IPOHE” value in experiment [1] (Pre-Emergence at 15.625 g/ha) came out at 10; in experiment [1] (Pre-Emergence at 62.5 g/ha), 10; in experiment [1] (Pre-Emergence at 250 g/ha) it was 20; in experiment [2] (Post-Emergence at 15.625 g/ha), 10; in experiment [2] (Post-Emergence at 62.5 g/ha) it was 20; in experiment [2] (Post-Emergence at 250 g/ha), 50. Further, the “damage to plant (100=total damage; 0=no damage) ECHCG” value is 90 in experiment [3] (Pre-Emergence at 15.625 g/ha); 90 in experiment [3] (Pre-Emergence at 62.5 g/ha); 90 in experiment [3] (Pre-Emergence at 250 g/ha); 50 in experiment [6] (Post-Emergence at 15.625 g/ha); 70 in experiment [6] (Post-Emergence at 62.5 g/ha); 70 in experiment [6] (Post-Emergence at 250 g/ha). The “damage to plant (100=total damage to plant; 0=no damage to plant), ZEAMX” value is 0 in experiment [4] (rate 130, evaluated after 15 d); 0 in experiment [4] (rate 250, evaluated after 15 d); 10 in experiment [4] (rate 500, evaluated after 15 d). Besides, the “TRZAW damage rating (100=total damage to plant; 0=no damage to plant)” value in experiment [5] (setting [8]) was found to be 0; in experiment [5] (setting [9]), 10; in experiment [5] (setting [10]), 40. Besides, the “damage to plant (100=total damage; 0=no damage) ZEAMX” value is reported as 30 in experiment [7] (Pre-Emergence at 15.625 g/ha), 60 in experiment [7] (Pre-Emergence at 62.5 g/ha) and 80 in experiment [7] (Pre-Emergence at 250 g/ha).
Consider `CCn1nc([C@H]2CN(C)C(=O)[C@@H]2C(=O)Nc2cccc(F)c2F)c2c(F)cccc21` [Compound 7], for which the “damage to plant (100=total damage; 0=no damage) IPOHE” value is reported as 20 in experiment [1] (Pre-Emergence at 15.625 g/ha); 20 in experiment [1] (Pre-Emergence at 62.5 g/ha); 80 in experiment [1] (Pre-Emergence at 250 g/ha); 20 in experiment [2] (Post-Emergence at 15.625 g/ha); 20 in experiment [2] (Post-Emergence at 62.5 g/ha); 0 in experiment [2] (Post-Emergence at 250 g/ha). The “damage to plant (100=total damage; 0=no damage) ECHCG” value in experiment [3] (Pre-Emergence at 15.625 g/ha) is reported as 70; in experiment [3] (Pre-Emergence at 62.5 g/ha) it was 80; in experiment [3] (Pre-Emergence at 250 g/ha), 90; in experiment [6] (Post-Emergence at 15.625 g/ha), 60; in experiment [6] (Post-Emergence at 62.5 g/ha) it was 80; in experiment [6] (Post-Emergence at 250 g/ha), 80. The “damage to plant (100=total damage to plant; 0=no damage to plant), ZEAMX” value in experiment [4] (rate 130, evaluated after 15 d) is listed as 0; in experiment [4] (rate 250, evaluated after 15 d) it was 0; in experiment [4] (rate 500, evaluated after 15 d), 10. For the same compound, the results for the “damage to plant (100=total damage; 0=no damage) ZEAMX” value in experiment [7] (Pre-Emergence at 15.625 g/ha), in experiment [7] (Pre-Emergence at 62.5 g/ha) and in experiment [7] (Pre-Emergence at 250 g/ha) were 20, 30 and 90, respectively.
